# Measurements reported in patent US11053250B2, “Pyrrolo[1,2-b]pyridazine derivatives” (Gilead Sciences, Inc., priority 2018, dated 2021).
# How the values were obtained:
# IRAK4 enzyme = IRAK4 enzyme (Homo sapiens (Human), UniProt Q9NWZ3); assay: IRAK4 Biochemical Assay (TR-FRET/HTRF); conditions: 0.75 nM IRAK4, 500 μM ATP, STK1 peptide
# Description: IRAK4 enzyme (Carna Biosciences, Chuo-ku, Kobe, Japan) activity was measured by detecting phosphorylated peptide substrate formation using an antibody against the phosphorylated peptide substrate. This is a time-resolved fluorescence resonance energy transfer (TR-FRET) immunoassay, based on the STK1 KinEASE Assay (Cisbio, Bedford, Mass.). The assay was designed as a simple two-step, endpoint assay (a 5 μl enzyme reaction followed by 5 μl stop and detect Solution) performed in ProxiPlate-384 Plus plates (Perkin Elmer, Waltham, Mass.). Staurosporine, a non-selective kinase inhibitor was used as a positive control. Compounds diluted in DMSO were spotted into 384 well plates using a Labcyte® Echo 550 Liquid Handling System prior to addition of IRAK4 enzyme and peptide substrate. Reaction solutions were delivered using a Multi-Flo (Bio-Tek Instruments). The enzyme and peptide solution was incubated with compound for 15 minutes at room temp before the reaction was initiated by the addition of ATP. The standard 5 μl reaction mixture contained 500 μM ATP, 2 μM peptide (STK1 Peptide), 0.75 nM of IRAK4 in reaction buffer (50 mM HEPES, pH 7.0, 0.02% NaN3, 0.01% BSA, 0.1 mM Orthovanadate, 5 mM MgCl2, 0.025% NP-40, 1 mM DTT). After 120 min of incubation at room temperature, 5 μl of Stop and Detect Solution (1:100 Cryptate labeled anti-phosphorylated peptide antibody solution and 125 nM Tracer in a 50 mM HEPES pH 7.0 detection buffer containing sufficient EDTA) was added. The plate was then further incubated for 60 minutes at room temperature and read on Envision 2103 Multilabeled reader (PerkinElmer) with excitation/emission/FRET emission at 340 nm/615 nm/665 nm, respectively. Fluorescence intensities at 615 nm and 665 nm emission wavelengths were expressed as a ratio (665 nm/615 nm). Percentage of inhibition was calculated as below: % Inhibition=100×(RatioSample−Ratio0% Inhibition)/(Ratio100% Inhibition−Ratio0% Inhibition)
# The 0% inhibition value comes from control wells lacking inhibitor. The 100% inhibition value comes from control wells containing a saturating amount of known inhibitor staurosporine.
# TNFα = assay: IRAK4 Monocyte TNFα Cell Based Assay; conditions: cryopreserved human monocytes, LPS 50 pg/ml stimulation, TNFα by TR-FRET
# Description: The cell suspension was then plated at a density of 5,000 cells/well onto black 384 well Greiner clear bottom plates. Plates were pre-spotted with test compounds and serially diluted in DMSO where 40 nL/well were delivered using the Echo 550 acoustic liquid dispenser (Labcyte®) for a final DMSO concentration of 0.1%. Plated cells were treated with compound for 1 hour at 37° C. Cells were then stimulated with 50 pg/ml of LPS (Sigma) excluding outside columns of plate used for unstimulated cell control wells. Cells were incubated for an additional 4 hours at 37° C. Cells were then spun out of the media and 5 μl of sample were taken and analyzed for total TNFα content using the TR-FRET Human TNFα detection system (CisBio). This system utilizes two labeled antibodies (cryptate and XL665) that bind to two different epitopes of the TNFα molecule and produce FRET signal proportional to the concentration of TNFα in the sample. Detection antibodies are mixed 50:50 and 5 μL were dispensed into each well. Plates were covered with clear seals and incubated at room temp overnight. The following morning plates were read using an Envision 2103 Multilabeled reader (PerkinElmer) with excitation/emission/FRET emission at 340 nm/615 nm/665 nm, respectively. Fluorescence intensities at 615 nm and 665 nm emission wavelengths were expressed as a ratio (665 nm/615 nm). Percent of control was calculated as follows: % Control=100×(RatioSample−Ratio0% stimulation)/(Ratio100% Stimulation−Ratio0% stimulation) where unstimulated cells (0% stimulation) were the negative control and stimulated cells (100% stimulation) were used as the positive control.
# IRAK4 enzyme, sequence (Q9NWZ3 whole entry): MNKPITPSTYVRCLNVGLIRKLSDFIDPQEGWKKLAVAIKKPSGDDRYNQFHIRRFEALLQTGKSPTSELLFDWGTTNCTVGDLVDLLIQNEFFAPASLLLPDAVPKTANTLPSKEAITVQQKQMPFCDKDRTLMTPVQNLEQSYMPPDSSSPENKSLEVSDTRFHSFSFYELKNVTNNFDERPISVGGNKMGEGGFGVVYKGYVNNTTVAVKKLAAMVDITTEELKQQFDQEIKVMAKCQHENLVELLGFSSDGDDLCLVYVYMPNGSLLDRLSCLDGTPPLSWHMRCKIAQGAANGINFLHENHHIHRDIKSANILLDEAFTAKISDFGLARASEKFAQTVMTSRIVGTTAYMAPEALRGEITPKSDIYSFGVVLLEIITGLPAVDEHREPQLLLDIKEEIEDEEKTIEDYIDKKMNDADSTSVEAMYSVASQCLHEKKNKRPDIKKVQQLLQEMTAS
SMILES,IC50 (IRAK4 enzyme),EC50 (TNFα; Monocyte),EC50 (TNFα)
"CC(C)Nc1cc(-c2ccc3cc(C#N)cnn23)ncc1-c1cn(C2CCN(S(C)(=O)=O)CC2)nn1 [Compound 41, 7-(4-(isopropylamino)-5-(1-(1-(methylsulfonyl)piperidin-4-yl)-1H-1,2,3-triazol-4-yl)pyridin-2-yl)pyrrolo[1,2-b]pyridazine-3-carbonitrile]",1 nM,70 nM,–
"CC(C)(O)[C@H](F)Cn1cc(-c2cnc(-c3ccc4cc(C#N)cnn34)cc2NC23CCC(N4CCOCC4)(CC2)CC3)nn1 [Compound 34, (R)-7-(5-(1-(2-fluoro-3-hydroxy-3-methylbutyl)-1H-1,2,3-triazol-4-yl)-4-((4-morpholinobicyclo[2.2.2]octan-1-yl)amino)pyridin-2-yl)pyrrolo[1,2-b]pyridazine-3-carbonitrile]",< 1 nM,6 nM,–
"CNc1cc(-c2ccc3cc(C#N)cnn23)ncc1-c1cn(CC(F)(F)C(C)(C)O)nn1 [Compound 28, 7-(5-(1-(2,2-difluoro-3-hydroxy-3-methylbutyl)-1H-1,2,3-triazol-4-yl)-4-(methylamino)pyridin-2-yl)pyrrolo[1,2-b]pyridazine-3-carbonitrile]",3 nM,94 nM,–
"CNc1cc(-c2ccc3cc(C#N)cnn23)ncc1-c1cn(C)nn1 [Compound 36, 7-(5-(1-methyl-1H-1,2,3-triazol-4-yl)-4-(methylamino)pyridin-2-yl)pyrrolo[1,2-b]pyridazine-3-carbonitrile]",14 nM,324 nM,–
"COC(=O)Cn1cc(-c2cnc(-c3ccc4cc(C#N)cnn34)cc2NC(C)C)nn1 [Compound 56, methyl 2-(4-(6-(3-cyanopyrrolo[1,2-b]pyridazin-7-yl)-4-(isopropylamino)pyridin-3-yl)-1H-1,2,3-triazol-1-yl)acetate]",< 1 nM,42 nM,–
"CNc1cc(-c2ccc3cc(C#N)cnn23)ncc1-c1cn([C@H]2CC[C@H](NC(=O)N3CCOCC3)CC2)nn1 [Compound 18, N-((1r,4r)-4-(4-(6-(3-cyanopyrrolo[1,2-b]pyridazin-7-yl)-4-(methylamino)pyridin-3-yl)-1H-1,2,3-triazol-1-yl)cyclohexyl)morpholine-4-carboxamide]",2 nM,–,49 nM
"CNc1cc(-c2ccc3cc(C#N)cnn23)ncc1-c1cn(CC(F)F)nn1 [Compound 27, 7-(5-(1-(2,2-difluoroethyl)-1H-1,2,3-triazol-4-yl)-4-(methylamino)pyridin-2-yl)pyrrolo[1,2-b]pyridazine-3-carbonitrile]",9 nM,338 nM,–
"COC(=O)NCC1CC(Nc2cc(-c3ccc4cc(C#N)cnn34)ncc2-c2cn(C3CCC(NC(=O)OC(C)(C)C)CC3)nn2)C1 [Compound 22, methyl (((1R,3r)-3-((5-(1-((1r,4R)-4-((tert-butoxycarbonyl)amino)cyclohexyl)-1H-1,2,3-triazol-4-yl)-2-(3-cyanopyrrolo[1,2-b]pyridazin-7-yl)pyridin-4-yl)amino)cyclobutyl)methyl)carbamate]",1 nM,–,187 nM
"CC(C)Nc1cc(-c2ccc3cc(C#N)cnn23)ncc1-n1cc([C@H]2CC[C@H](NC(=O)OC(C)(C)C)CC2)nn1 [Compound 64, tert-butyl ((1r,4r)-4-(1-(6-(3-cyanopyrrolo[1,2-b]pyridazin-7-yl)-4-(isopropylamino)pyridin-3-yl)-1H-1,2,3-triazol-4-yl)cyclohexyl)carbamate]",2 nM,–,121 nM
"CC(C)(O)[C@H](F)Cn1cc(-c2cnc(-c3ccc4cc(C#N)cnn34)cc2N[C@H]2CC[C@H](c3nnc(C(F)F)o3)CC2)nn1 [Compound 3, 7-(4-(((1r,4R)-4-(5-(difluoromethyl)-1,3,4-oxadiazol-2-yl)cyclohexyl)amino)-5-(1-((R)-2-fluoro-3-hydroxy-3-methylbutyl)-1H-1,2,3-triazol-4-yl)pyridin-2-yl)pyrrolo[1,2-b]pyridazine-3-carbonitrile]",2 nM,–,20 nM
"CC(C)(O)[C@H](F)Cn1cc(-c2cnc(-c3ccc4cc(C#N)cnn34)cc2NC23CCC(N4CCOC4=O)(CC2)CC3)nn1 [Compound 35, (R)-7-(5-(1-(2-fluoro-3-hydroxy-3-methylbutyl)-1H-1,2,3-triazol-4-yl)-4-((4-(2-oxooxazolidin-3-yl)bicyclo[2.2.2]octan-1-yl)amino)pyridin-2-yl)pyrrolo[1,2-b]pyridazine-3-carbonitrile]",< 1 nM,3 nM,–

# The remaining lines, values ahead:
IC50 (IRAK4 enzyme),EC50 (TNFα; Monocyte),EC50 (TNFα),SMILES
< 1 nM,28 nM,–,"CNc1cc(-c2ccc3cc(C#N)cnn23)ncc1-c1cn(C[C@@H](F)C(C)(C)O)nn1 [Compound 37, (R)-7-(5-(1-(2-fluoro-3-hydroxy-3-methylbutyl)-1H-1,2,3-triazol-4-yl)-4-(methylamino)pyridin-2-yl)pyrrolo[1,2-b]pyridazine-3-carbonitrile]"
1 nM,33 nM,–,"CC(=O)N1CCC(n2cc(-c3cnc(-c4ccc5cc(C#N)cnn45)cc3NC(C)C)nn2)CC1 [Compound 42, 7-(5-(1-(1-acetylpiperidin-4-yl)-1H-1,2,3-triazol-4-yl)-4-(isopropylamino)pyridin-2-yl)pyrrolo[1,2-b]pyridazine-3-carbonitrile]"
< 1 nM,–,18 nM,"COC(=O)NC[C@H]1C[C@H](Nc2cc(-c3ccc4cc(C#N)cnn34)ncc2-c2cn(CC(=O)N3CC(F)(F)C3)nn2)C1 [Compound 14, methyl (((1r,3r)-3-((2-(3-cyanopyrrolo[1,2-b]pyridazin-7-yl)-5-(1-(2-(3,3-difluoroazetidin-1-yl)-2-oxoethyl)-1H-1,2,3-triazol-4-yl)pyridin-4-yl)amino)cyclobutyl)methyl)carbamate]"
1 nM,84 nM,–,"COC(=O)N1CCC(n2cc(-c3cnc(-c4ccc5cc(C#N)cnn45)cc3NC(C)C)nn2)CC1 [Compound 40, methyl 4-(4-(6-(3-cyanopyrrolo[1,2-b]pyridazin-7-yl)-4-(isopropylamino)pyridin-3-yl)-1H-1,2,3-triazol-1-yl)piperidine-1-carboxylate]"
< 1 nM,23 nM,–,"CC(C)(O)[C@H](F)Cn1cc(-c2cnc(-c3ccc4cc(C#N)cnn34)cc2NC2COC2)nn1 [Compound 31, (R)-7-(5-(1-(2-fluoro-3-hydroxy-3-methylbutyl)-1H-1,2,3-triazol-4-yl)-4-(oxetan-3-ylamino)pyridin-2-yl)pyrrolo[1,2-b]pyridazine-3-carbonitrile]"
< 1 nM,–,44 nM,"COC(=O)NC[C@H]1C[C@H](Nc2cc(-c3ccc4cc(C#N)cnn34)ncc2-c2cn(C)nn2)C1 [Compound 33, methyl (((1r,3r)-3-((2-(3-cyanopyrrolo[1,2-b]pyridazin-7-yl)-5-(1-methyl-1H-1,2,3-triazol-4-yl)pyridin-4-yl)amino)cyclobutyl)methyl)carbamate]"
2 nM,125 nM,–,"COCCn1cc(-c2cnc(-c3ccc4cc(C#N)cnn34)cc2NC(C)C)nn1 [Compound 48, 7-(4-(isopropylamino)-5-(1-(2-methoxyethyl)-1H-1,2,3-triazol-4-yl)pyridin-2-yl)pyrrolo[1,2-b]pyridazine-3-carbonitrile]"
< 1 nM,–,16 nM,"COC(=O)NCC1CC(Nc2cc(-c3ccc4cc(C#N)cnn34)ncc2-c2cn(C3CC(CO)C3)nn2)C1 [Compound 9, methyl (((1R,3r)-3-((2-(3-cyanopyrrolo[1,2-b]pyridazin-7-yl)-5-(1-((1r,3R)-3-(hydroxymethyl)cyclobutyl)-1H-1,2,3-triazol-4-yl)pyridin-4-yl)amino)cyclobutyl)methyl)carbamate]"
